# Measured values reported in patent US20170240592A1, “GADD45BETA/MKK7 INHIBITOR FOR THE TREATMENT OF A RESISTANT HAEMATOLOGICAL MALIGNANCY” (IMPERIAL INNOVATIONS LIMITED, priority 2014, published 2017).
# Legend:
# [1] = test system: diffuse large B-cell lymphoma (DLBCL) cell lines; test: PI nuclear staining assay, apoptotic cells in DLBCL cell lines; assay type: cell-based, human; settings: 10 μM, 6 days
# Protocol: Current treatment of diffuse large B-cell lymphoma typically involves treatment with combination therapy, such as cyclophosphamide, doxorubicin, vincristine and prednisone (CHOP), or rituximab, cyclophosphamide, doxorubicin, vincristine and prednisone (R-CHOP). With those current treatments, many patients relapse and/or develop drug resistance at some point. The potential of the Gadd45β/MKK7 inhibitor DTP3 to operate in these settings was evaluated, by determining levels of apoptosis in diffuse large B-cell lymphoma cell lines known to be resistant to current therapies (HT, SU-DHL-8, U-2932, RC-K8 and RIVA, see for example Kaneko et al, Clinical Cancer Research, 2014, 20, p 1814-1820; Naylor et al, Cancer Research, 2011, Volume 71, p 2643-2653; Lyu et al, Cancer Research, 2013, Volume 73, Issue 8, Supplement 1), following treatment of those cells with DTP3. These cells have CARD11, A20 and/or MYD88 mutations and are also known to be resistant to agents such as Bruton's tyrosine kinase inhibitors, spleen tyrosine kinase inhibitors, PI3K inhibitors and/or protein kinase C inhibitors.
# The percentages of apoptotic cells are depicted.
# A comparison was made between the ability of DTP3 to kill various DLBCL cell lines by apoptosis in vitro. Cell lines HT, SU-DHL-8, U-2932 and RC-K8 which are known to be sensitive to DTP3; and insensitive cell lines RI-1, NU-DUL-1, TMD8, and HBL1 were used. Cell death was assessed using a standard propidium iodide (PI) nuclear staining assay followed by flow cytometry whereby the proportion of cells with a sub G1-DNA content was measured after cells had been exposed to DTP3 for 6 days at 10 μM. As controls, further populations of cells were left untreated (UT) or were treated with a scrambled D-tripeptide (SCR) for 6 days.
# Apoptosis analyses were performed using propidium iodide (PI) nuclear labelling, as described previously (Riccardi and Nicoletti, 2006). Briefly, cells were seeded at a density of 2×10^5 cells/well into wells of either 24- or 48-well plates and cultured in the presence or absence of treatment, as shown. Cells were then fixed in 70% ice-cold ethanol for 16 hr, washed in PBS, and treated with ribonuclease A (50 μg/mL) for 30 min at room temperature. Samples were finally stained with PI (50 μg/mL) in 0.1% sodium citrate buffer for 2 to 4 hr at 4° C. in the dark, and data were acquired using a FACSCalibur automated system (Becton Dickinson) and analysed with FlowJo.
# [2] = in vivo pharmacokinetic analyses after single intravenous injection; settings: calculated from measured PK values, k0=k1×Vd×Cp
# Protocol: In vitro pharmacokinetic assays were performed according to established, in-house protocols and included: plasma stability (human), thermodynamic solubility (PBS pH 7.4, at 37° C. for 14 days), microsomal stability (human), plasma protein binding (PPB; mouse and human), and distribution coefficient (Log D). In vivo pharmacokinetic analyses were also performed at Cyprotex according to established, in-house protocols. Briefly, the peptides were dissolved in PBS and administered by single intravenous injection to CD1 male mice at the dose of 10 mg/kg (25-30 g of total body weight; n=3 mice per time point per compound). Blood samples were collected in heparinized tubes at up to 7 time points after this injection (i.e. 0.08, 0.25, 0.5, 1, 2, 4 and 8 hr), and the plasma concentrations of the test peptide were determined at each time point by LC-MS/MS, using a five-point standard curve covering a peptide concentration range from 3 to 3,000 ng/mL. Standard curves were prepared using blank plasma matrices and treated in the same manner as the test samples. […] Values were calculated from the data of the peptide plasma concentration versus time curves using a non-compartmental model analysis, as described elsewhere (Groulx, 2006; Landaw and Di Stefano 3rd, 1982). The doses of z-DTP2 and DTP3 predicted to achieve the therapeutic plasma concentration of 1 μM at the steady state were calculated from the measured pharmacokinetic values using the following equation: k0=k1×Vd×Cp (where Vd is expressed in L/kg; Cp is the plasma concentration at the steady state expressed in mg/L; k0 is the zero order input expressed in mg/kg/hr; k1 is the first order elimination constant [0.693/t1/2]).
# U266 cells = test: [3H]thymidine incorporation assay, DTP3 and bortezomib as single agents or in combination, U266; settings: FA 0.5; DTP3 3 nM for 6 days, bortezomib last 48 hr; Chou-Talalay
# Protocol: Treatments with DTP3 were for 6 days; bortezomib was added to the cell cultures 48 hr prior to the measurement of cell viability. For the combination treatment, DTP3 was used at the concentrations of 3 nM in U266 cells and of 10 nM in KMS-12 cells, whereas bortezomib was used at increasing concentrations, as shown.
# Viability data from the experiment shown in FIG. 12 were converted into values representing the fraction of cells affected (FA) equaling 0.5 in the drug-treated cultures compared with untreated cultures, and the interaction of DTP3 with bortezomib was analysed according to the Chou-Talalay method (Chou, 2006). Also shown are the drug concentrations giving the FA value of 0.5 and the description of the CI. […]
# [^3H]Thymidine incorporation assays were performed using standard protocols (Griffiths and Sundaram, 2011). […] At 24, 72 or 144 hr, cells were incubated for an additional 16 hr with 0.037 MBq/well of [^3H]thymidine (Amersham), and then harvested onto glass fibre filter mats using a 96-well plate automated Tomtec cell harvester (Receptor Technologies) and analysed by liquid scintillation spectroscopy with a LKB Wallac Trilux Microbeta 3 b-counter (PerkinElmer). Values were expressed as the percentage of the counts per minute (cpm) measured in the treated cultures relative to the cpm measured in the respective untreated cultures. […]
# [3] = test system: mouse LN cells and splenocytes; test: trypan blue exclusion assay, survival of mouse LN cells and splenocytes; assay type: cell-based; settings: DTP3 100 μM, PS-1145 20 μM, 144 hr
# Protocol: (§1) Values express the percentage of live cells present in the treated cultures relative to the live cells present in the respective untreated cultures and denote means±SD ([WM]; n=3). UT, untreated. […] Values express the percentage of inhibition of Gadd45β binding to MKK7 relative to the binding measured in the absence of peptide. […] Co-immunoprecipitations (IP) were performed using an anti-FLAG antibody (a-FLAG); western blots (WB) were developed using an anti-HA or an anti-MKK7 antibody, as shown.
# […] Cell viability was measured by using trypan blue exclusion or [^3H]thymidine incorporation assays performed in the manner described above (Mauro et al., 2011; Griffiths and Sundaram, 2011; Arnold et al., 2008), as indicated.
# Gadd45β/MKK7 complex = biological target: T1, Gadd45β/MKK7 complex (Homo sapiens, UniProt O14733); test: co-immunoprecipitation assay; assay type: binding; settings: anti-FLAG immunoprecipitates, HEK-293T lysates
# T1 construct: expressed in transfected cells; host or cells: human HEK-293T
# T1 sequence (O14733 1-419): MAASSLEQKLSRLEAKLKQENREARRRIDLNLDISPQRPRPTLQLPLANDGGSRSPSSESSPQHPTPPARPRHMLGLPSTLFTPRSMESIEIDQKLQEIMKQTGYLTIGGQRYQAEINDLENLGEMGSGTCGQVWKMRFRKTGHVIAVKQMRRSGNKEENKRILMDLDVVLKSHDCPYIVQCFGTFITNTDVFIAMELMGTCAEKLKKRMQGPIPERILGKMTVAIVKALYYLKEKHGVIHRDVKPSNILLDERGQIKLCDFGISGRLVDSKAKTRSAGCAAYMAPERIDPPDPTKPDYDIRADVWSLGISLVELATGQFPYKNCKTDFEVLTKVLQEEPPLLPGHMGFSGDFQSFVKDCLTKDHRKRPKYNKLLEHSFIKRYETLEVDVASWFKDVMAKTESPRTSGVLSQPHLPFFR
# Protocol: as §1
# Co-immunoprecipitation assays were performed as described previously (Papa et al., 2004). Briefly, human HEK-293T cells were seeded at a density of 1.8-2.2×10^6 cells/dish in […] tissue-culture dishes and then transfected with pcDNA-FLAG-hMKK7 and pcDNA-HA-hGADD45β by using the calcium phosphate precipitation method (Papa et al., 2004). 48 hr after transfection, cells were washed with PBS and then lysed in lysis buffer supplemented with protease inhibitors (1 mM phenylmethylsulfonylfluoride, 10 μM chymostatin, 2 μg/mL aprotinin, 2 μg/mL leupeptin; Roche) for 30 min in ice. Cell lysates were cleared by centrifugation at 45,000×g for 40 min and then used for co-immunoprecipitations with anti-FLAG M2 Affinity Gel (Sigma-Aldrich), binding to FLAG-tagged MKK7. Western blots were developed using an anti-HA (binding to HA-hGADD45β) or an anti-MKK7 antibody. […]
structure (smiles),measurement,setting,value
"CC(=O)N[C@H](Cc1ccc(O)cc1)C(=O)N[C@H](CCCNC(=N)N)C(=O)N[C@H](Cc1ccccc1)C(N)=O [DTP3, Acetyl-Tyr-Arg-Phe-NH2]",apoptosis in DLBCL cell lines resistant to conventional DLBCL treatments,"[1]; HT, SU-DHL-8, U-2932, RC-K8",effective in causing apoptosis
same,apoptosis in sensitive DLBCL cell lines,"[1]; HT, SU-DHL-8, U-2932, RC-K8",substantial increases in apoptosis
same,apoptosis in insensitive DLBCL cell lines,"[1]; RI-1, NU-DUL-1, TMD8, HBL1",no increase in apoptosis
same,predicted dose required to achieve the therapeutic plasma concentration of 1 μM at the steady state (k0),[2],0.81 mg/kg/h
same,combination index (CI) with bortezomib,U266 cells,0.21
same,toxicity to normal cells compared with PS-1145,[3],far lesser toxicity to normal cells than the IKKβ inhibitor PS-1145
same,disruption of the Gadd45β/MKK7 complex,Gadd45β/MKK7 complex,disruption of the Gadd45β/MKK7 complex
